Source: article PMC12475274, “Harnessing indole scaffolds to identify small-molecule IRE1α inhibitors modulating XBP1 mRNA splicing” (Nature Communications, 2025)
Where “and” joins values, the source holds several entries; their conditions need not be identical. Equal values may be shown once. Read-outs that look alike come from different tables or passages of the source.

Legend:
[1] = target: T1, dephosphorylated IRE1α (547–977) (Homo sapiens, UniProt O75460); test: FRET-based IRE1α RNase activity assay, dephosphorylated IRE1α; format: biochemical; conditions: for inhibition at 50 µM: FRET assay at 50 μM, read-out: IRE1α inhibition%; for inhibition(%): IRE1a
T1 construct: Human IRE1α kinase and RNase domain (residues 547–977) was subcloned into pLIB plasmid; His tag (with TEV cleavage site) (N, cleaved yes); made in house; host or cells: Sf9 insect cells, baculovirus (Bac-to-Bac)
T1 sequence (O75460 547-977): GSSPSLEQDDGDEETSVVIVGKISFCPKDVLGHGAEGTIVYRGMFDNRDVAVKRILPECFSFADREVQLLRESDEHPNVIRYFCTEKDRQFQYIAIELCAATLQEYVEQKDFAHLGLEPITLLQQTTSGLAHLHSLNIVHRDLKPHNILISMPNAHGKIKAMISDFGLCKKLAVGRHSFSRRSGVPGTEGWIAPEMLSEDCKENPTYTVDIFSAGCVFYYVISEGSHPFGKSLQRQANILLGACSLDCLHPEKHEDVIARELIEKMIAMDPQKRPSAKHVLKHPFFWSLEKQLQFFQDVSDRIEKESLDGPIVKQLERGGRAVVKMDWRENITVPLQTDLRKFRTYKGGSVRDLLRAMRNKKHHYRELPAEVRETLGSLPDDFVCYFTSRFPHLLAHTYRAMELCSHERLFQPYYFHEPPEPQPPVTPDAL
Method: (§1) Human IRE1α kinase and RNase domain (residues 547–977) was subcloned into pLIB plasmid with a His tag and TEV cleavage site, and expressed using Bac-to-Bac expression system. The primers used are listed in Supplementary Table S3. The protein purification was performed following established procedures. Briefly, Sf9 cells were infected with baculovirus and incubated at 27 °C 110 rpm for 72 h. The cells were collected by centrifugation at 4000 × g for 15 min and the cell pellet was resuspended in lysis buffer (50 mM HEPES pH 7.5, 300 mM NaCl, 10% glycerol, 1 mM MgCl2, 1 mM TCEP, 5 mM imidazole), then supplemented with 1:10,000 benzonase (Sigma, E1014), 1 tablet/25 mL […]™ Protease Inhibitor Cocktail tablets (Sigma, S8830) and 1 mM PMSF before lysed by sonication at 4 °C. […] The protein elution was incubated with TEV protease to remove His tag at 4 °C overnight. Then the sample was diluted 1:6 in buffer (50 mM HEPES pH 7.5, 1 mM TCEP, 5% glycerol) and loaded onto a 5 mL pre-packaged Q HP anion exchange column (Cytiva, HiTrap Q HP) pre-equilibrated with QA buffer (50 mM HEPES pH 7.5, 50 mM NaCl, 1 mM TCEP, 5% glycerol). The unphosphorylated and phosphorylated protein was separated by eluting the protein with a very shallow gradient with 0-30% buffer QB (50 mM HEPES pH 7.5, 1 M NaCl, 1 mM TCEP, 5% glycerol) over 80 CV. Different peaks were collected separately and verified by LC-MS. The fully phosphorylated fraction was collected and further purified by size exclusion chromatography (Cytiva, HiLoad 16/600 Superdex 200 pg,) with SEC buffer (25 mM HEPES pH 7.5, 250 mM NaCl, 1 mM TCEP, 10% glycerol) and fractioned as monomeric peak. The rest protein fraction from the Q HP anion exchange column was incubated with Lambda protein phosphatase (New England BioLabs, P0753S) overnight at 4 °C, the dephosphorylation was confirmed by LC-MS. The unphosphorylated protein was further purified by size exclusion chromatography with the SEC buffer described above. The purified phosphorylated (p-IRE1α) and dephosphorylated (IRE1α) protein aliquots were stored at −80 °C for future usage.
The dual-labeled RNA substrate with a FAM at 5’ and the BHQ-1 at 3’ containing the XBP1 sequence (5′FAM-[…]-3′BHQ1) was purchased from Integrated DNA Technologies (IDT). The FRET-based IRE1α RNase activity assay was carried out in reaction buffer containing 20 mM HEPES pH 7.5, 50 mM KOAc, 1 mM MgOAc2, 1 mM DTT, 0.05% v/v TritonX-100, at a total reaction volume of 20 μL in a 384-well black plate (4514, Corning). For unphosphorylated IRE1α (IRE1α), a final concentration of 40 nM IRE1α protein and 100 nM RNA substrate was used. For phosphorylated IRE1 (p-IRE1α), a final concentration of 4 nM p-IRE1α protein and 200 nM RNA substrate was used. The indicated compound and IRE1α protein were incubated for 30 min at room temperature before the substrate was added to the reaction. The plate was then kinetically read over one hour at room temperature using a TECAN Spark plate reader. The measurement was carried out using the fluorescence top reading mode at the excitation wavelength of 485 nm and the emission wavelength of 535 nm with a 10 nm excitation and emission bandwidth. The linear part of the reaction curve was adopted and fitted with sample linear regression to obtain the slope, and the slope was adopted to reflect the reaction rate. The inhibition % was calculated by using the equation: inhibition% = 100 × (slope of DMSO control – slope of the sample)/(slope of DMSO control – slope of blank control), DMSO control: DMSO with protein and RNA substrate; Blank control: DMSO with RNA substrate. The IC50 values were calculated using the concentration-response model in GraphPad Prism 9. […]

[2] = target: T2, phosphorylated IRE1α (p-IRE1α) (Homo sapiens, UniProt O75460); test: FRET-based IRE1α RNase activity assay, phosphorylated IRE1α; format: biochemical; conditions: for p-IRE1α IC50 / IC50: FRET assay; for inhibition at 50 µM: FRET assay at 50 μM, read-out: p-IRE1α inhibition%; for inhibition(%): p-IRE1a
T2 construct: Human IRE1α kinase and RNase domain (residues 547–977) was subcloned into pLIB plasmid; His tag (with TEV cleavage site) (N, cleaved yes); made in house; host or cells: Sf9 insect cells, baculovirus (Bac-to-Bac)
T2 sequence (O75460 547-977): as above
Method: as §1
The dual-labeled RNA substrate with a FAM at 5’ and the BHQ-1 at 3’ containing the XBP1 sequence (5′FAM-[…]-3′BHQ1) was purchased from Integrated DNA Technologies (IDT). The FRET-based IRE1α RNase activity assay was carried out in reaction buffer containing 20 mM HEPES pH 7.5, 50 mM KOAc, 1 mM MgOAc2, 1 mM DTT, 0.05% v/v TritonX-100, at a total reaction volume of 20 μL in a 384-well black plate (4514, Corning). For unphosphorylated IRE1α (IRE1α), a final concentration of 40 nM IRE1α protein and 100 nM RNA substrate was used. For phosphorylated IRE1 (p-IRE1α), a final concentration of 4 nM p-IRE1α protein and 200 nM RNA substrate was used. The indicated compound and IRE1α protein were incubated for 30 min at room temperature before the substrate was added to the reaction. The plate was then kinetically read over one hour at room temperature using a TECAN Spark plate reader. The measurement was carried out using the fluorescence top reading mode at the excitation wavelength of 485 nm and the emission wavelength of 535 nm with a 10 nm excitation and emission bandwidth. The linear part of the reaction curve was adopted and fitted with sample linear regression to obtain the slope, and the slope was adopted to reflect the reaction rate. The inhibition % was calculated by using the equation: inhibition% = 100 × (slope of DMSO control – slope of the sample)/(slope of DMSO control – slope of blank control), DMSO control: DMSO with protein and RNA substrate; Blank control: DMSO with RNA substrate. The IC50 values were calculated using the concentration-response model in GraphPad Prism 9.

[3] = FRET assay, RNase activity, mean (± SEM), read-out: IRE1α IC50
[4] = RNase activity, mean (± SEM), read-out: p-IRE1α IC50
[5] = FRET assay, source data, unit from Fig. 3 / sheet Fig. 2b, read-out: IRE1a IC50, individual replicates (n1-n4)
[6] = source data, unit from Fig. 3, read-out: p-IRE1a IC50, individual replicates (n1-n4)

IC50 [1, 3] | IC50 [2, 4] | IC50 [1, 5] | IC50 [2, 6] | SMILES | other results
> 20000 nM | > 20000 nM | – | – | COc1ccc2[nH]c(C)c(CCC(=O)O)c2c1 [IA72] | IRE1α IC50 ([1]; FRET assay, RNase activity, mean (± SEM)): IC₅₀ not reached; p-IRE1α IC50 ([2]; RNase activity, mean (± SEM)): IC₅₀ not reached
– | – | – | – | COc1ccc2c(c1)c(CC(=O)OCC(=O)O)c(C)n2C(=O)c1ccc(Cl)cc1 [cms03] | inhibition at 50 µM ([1]; mean (± SEM)): < 30%; inhibition at 50 µM ([2]; mean (± SEM)): < 30%
830 nM | 1740 nM | 703 nM and 1250 nM and 531 nM | 1510 nM and 2540 nM and 1170 nM | COc1ccc2c(c1)c(CCC(=O)O)c(C)n2C(=O)C1CC1 [IA84] | –
760 nM | 610 nM | 589 nM and 971 nM and 1100 nM and 378 nM | 1080 nM and 593 nM and 159 nM | COc1ccc2c(c1)c(CCC(=O)O)c(C)n2C(=O)c1ccc2c(c1)C(=O)c1ccccc1C2=O [IA32] | –
1270 nM | 2030 nM | – | – | Cc1c(CCC(=O)O)c2cc(-c3ccoc3)ccc2n1C(=O)c1ccccc1 [IA138] | –
– | – | – | – | CCc1c(C)n(C(=O)c2ccc(Cl)cc2)c2ccc(OC)cc12 [cms01] | inhibition at 50 µM ([1]; mean (± SEM)): < 30%; inhibition at 50 µM ([2]; mean (± SEM)): < 30%
240 nM | 200 nM | 230 nM and 198 nM and 292 nM | 205 nM (2×) and 190 nM | Cc1c(CCC(=O)O)c2cc(C(C)C)ccc2n1C(=O)c1ccccc1 [IA110] | –
2970 nM | 7560 nM | 2310 nM and 3810 nM and 2780 nM | 1970 nM and 10100 nM and 10600 nM | Cc1c(CCC(=O)O)c2cc(-c3cccs3)ccc2n1C(=O)c1ccccc1 [IA140] | –
4730 nM | 15100 nM | 3280 nM and 6180 nM | 15800 nM and 14400 nM | CC(=O)c1ccc(-c2ccc3c(c2)c(CCC(=O)O)c(C)n3C(=O)c2ccccc2)s1 [IA162] | –
7410 nM | > 20000 nM | 6380 nM and 8450 nM | – | Cc1c(CCC(=O)O)c2cc(-c3ccc(O)cc3)ccc2n1C(=O)c1ccccc1 [IA163] | p-IRE1α IC50 ([2]; RNase activity, mean (± SEM)): IC₅₀ not reached
180 nM | 340 nM | 141 nM and 211 nM and 201 nM | 198 nM and 428 nM and 403 nM | COc1ccc2c(c1)c(CCC(=O)O)c(C)n2C(=O)c1ccncc1 [IA93] | –
– | – | – | – | Cc1ccc2c(NS(=O)(=O)c3ccccc3Cl)cccc2c1Oc1ncccc1-c1ccnc(N[C@H]2CCCNC2)n1 [AMG18] | inhibition(%) ([1]; 5.55556 μM): 93.95% and 92.37% and 91.58% and 94.22%; inhibition(%) ([1]; 16.6667 μM): 92.87% and 92.05% and 91.66% and 92.11%; inhibition(%) ([1]; 50 μM): 89.29% and 89.80% and 92.49% and 93.01%; inhibition(%) ([2]; 5.55556 μM): 100.91% and 100.40% and 100.53% and 99.85%; inhibition(%) ([2]; 16.6667 μM): 99.21% and 99.54% and 99.79% and 99.45%; inhibition(%) ([2]; 50 μM): 99.53% and 98.55% and 99.75% and 99.47%
